settings: not given

Row | SMILES | melting point [°C] | ready biodegradability | boiling point [°C] | log10 vapour pressure (mmHg) | log10 Henry constant (atm·m³/mol) | log10 Koa | log10 Koc (L/kg) | log10 biodegradation half-life (days)
1 | COc1ccc(Cl)cc1C(=O)NCCc1ccc(S(=O)(=O)NC(=O)NC2CCCCC2)cc1 | 169 |  |  |  |  |  |  | 
2 | CC(C)(C)N(NC(=O)c1ccccc1)C(=O)c1ccc(Cl)cc1Cl | 134 |  |  |  |  |  |  | 
3 | Cn1c(=O)c2c(ncn2CN2CCOCC2)n(C)c1=O | 177 |  |  |  |  |  |  | 
4 | CCCCCCCCCCCCOS(=O)(=O)O |  | readily biodegradable |  |  |  |  |  | 
5 | CC(=O)CC1CCCCN1 (stereo unspecified) |  |  | 195 |  |  |  |  | 
6 | C[C@H](F)Cl |  |  | 16.2 |  |  |  |  | 
7 | CCN(CC)CCN |  |  | 144 |  |  |  |  | 
8 | CCCCCCCCCCC=O | -4 |  |  |  |  |  |  | 
9 | FC(F)(F)C(F)(F)C(F)(F)C(F)(F)N(C(F)(F)C(F)(F)C(F)(F)C(F)(F)F)C(F)(F)C(F)(F)C(F)(F)C(F)(F)F | -50 | not readily biodegradable | 178 | -0.258 |  |  |  | 
10 | Clc1ccc(-c2cc(Cl)ccc2Cl)c(Cl)c1 |  |  |  | -5.07 | -3.68 | 8.39 |  | 
11 | CCCCC(=O)OCC(C)C |  |  | 179 |  |  |  |  | 
12 | Clc1cc2c(oc3c(Cl)c(Cl)c(Cl)cc32)c(Cl)c1Cl | 240 |  |  |  |  | 10.9 |  | 
13 | CCC(C)OC (stereo unspecified) | -100 |  | 65 | 2.32 |  |  |  | 
14 | OCc1ccc(F)cc1 | 23 |  | 210 |  |  |  |  | 
15 | Cc1ccc(C(=O)COc2c(C(=O)c3ccc(Cl)c(C)c3Cl)c(C)nn2C)cc1 | 133 |  |  | -7.01 |  |  |  | 
16 | C1CSCCO1 |  |  | 147 |  |  |  |  | 
17 | O=C1c2ccccc2-c2ccc(O)cc21 | 205 |  |  |  |  |  |  | 
18 | O=C(C(=O)c1ccccc1)c1ccccc1 | 94.8 |  | 347 | -3.68 |  |  |  | 
19 | COc1ccc(O)cc1 | 57 | readily biodegradable | 243 |  |  |  |  | 
20 | Fc1ccccc1F | -34 | not readily biodegradable | 94 | 1.73 |  |  |  | 
21 | CCOc1c(N2CCOCC2)cnn(C)c1=O | 90 |  |  |  |  |  |  | 
22 | CCOC(=O)CCCCCC(=O)OCC | -24 |  | 254 | -2.51 |  |  |  | 
23 | CN1CCc2cc3c(cc2[C@H]1[C@@H]1OC(=O)c2c1ccc1c2OCO1)OCO3 | 194 |  |  |  |  |  |  | 
24 | Cc1cc(C)c(O)cc1O | 126 |  | 276 |  |  |  |  | 
25 | Oc1cc(Cl)c(Cl)c(Cl)c1 | 101 |  | 275 |  |  |  | 3.56 | 

Row | SMILES | melting point [°C] | ready biodegradability | boiling point [°C] | log10 vapour pressure (mmHg) | log10 Henry constant (atm·m³/mol) | log10 Koa | log10 Koc (L/kg) | log10 biodegradation half-life (days)
26 | COC1=C[C@@H]2[C@@H]3Cc4ccc(OC)c(O)c4[C@]2(CCN3C)CC1=O | 162 |  |  |  |  |  |  | 
27 | CC(=O)N1CCC(=O)CC1 |  |  | 218 |  |  |  |  | 
28 | Clc1cc2oc3ccc(Cl)c(Cl)c3c2cc1Cl | 210 |  |  | -7.74 |  | 9.78 |  | 
29 | CC(=O)C1CCC1 |  |  | 138 |  |  |  |  | 
30 | Nc1c(F)c(F)cc(F)c1F | 31.5 |  | 158 |  |  |  |  | 
31 | C/C=C/CCC | -98 |  | 66.5 |  |  |  |  | 
32 | OCC(CO)(CBr)CBr | 113 | not readily biodegradable |  |  |  |  |  | 
33 | O=C(O)Cc1ccccc1CC(=O)O | 151 |  |  |  |  |  |  | 
34 | O=CC(Br)(Br)Br | -57.5 |  | 174 | 0.183 |  |  |  | 
35 | Oc1cc(O)cc(O)c1 | 218 | readily biodegradable |  |  |  |  |  | 
36 | O=C(O)Cc1ccc(Cl)cc1 | 106 |  |  |  |  |  |  | 
37 | CC(C)c1ccc(CO)cc1 | 28 | readily biodegradable | 249 |  |  |  |  | 
38 | C[Si](C)(C)Cc1ccccc1 |  |  | 190 |  |  |  |  | 
39 | CC(C)COC(=O)c1ccccc1O | 5.9 |  | 261 |  |  |  |  | 
40 | CC(C)(CC(=O)O)CC(=O)O | 104 |  |  |  |  |  |  | 
41 | Oc1ccccc1Cc1ccccc1 | 21 |  | 312 |  |  |  |  | 
42 | CC[C@H](O)C(C)C |  |  | 126 |  |  |  |  | 
43 | CC(C)(C)ON=O |  |  | 63 |  |  |  |  | 
44 | C=C(C)C=CC(=C)C | -9 |  | 146 |  |  |  |  | 
45 | O=[N+]([O-])c1cc(S(=O)(=O)Nc2ccccc2)ccc1Nc1ccccc1 | 156 | not readily biodegradable |  |  |  |  |  | 
46 | FCCCCCCCl |  |  | 168 |  |  |  |  | 
47 | O=C1CC=CCC1 |  |  | 170 |  |  |  |  | 
48 | C[C@H]1O[C@@H](n2cc(F)c(=O)[nH]c2=O)[C@H](O)[C@@H]1O | 190 |  |  |  |  |  |  | 
49 | O=P(Oc1ccccc1)(Oc1ccccc1)Oc1ccccc1 | 50.5 | readily biodegradable |  | -5.2 |  |  |  | 
50 | CCCCC(C)CC (stereo unspecified) | -100 |  | 118 | 1.29 |  |  |  | 0.477

Row | SMILES | melting point [°C] | ready biodegradability | boiling point [°C] | log10 vapour pressure (mmHg) | log10 Henry constant (atm·m³/mol) | log10 Koa | log10 Koc (L/kg) | log10 biodegradation half-life (days)
51 | C[Si](Cl)(Cl)c1ccccc1 |  |  | 206 | -0.312 |  |  |  | 
52 | CCOC(=O)CCCC(C)=O |  |  | 222 |  |  |  |  | 
53 | Brc1cccc2c1Oc1ccccc1O2 | 104 |  |  | -4.58 |  |  |  | 
54 | ClCCCI |  |  | 171 |  |  |  |  | 
55 | O=C1c2ccc(O)cc2OC(c2ccc(O)c(O)c2)C1O (stereo unspecified) | 227 |  |  |  |  |  |  | 
56 | O=C(CCCN1CCC2(CC1)C(=O)NCN2c1ccccc1)c1ccc(F)cc1 | 142 |  |  |  |  |  |  | 
57 | CC[C@]1(O)CC[C@H]2[C@@H]3CCC4=CC(=O)CC[C@@H]4[C@H]3CC[C@@]21C | 140 |  |  |  |  |  |  | 
58 | CC[C@H]1C[C@@H]2C[C@H]3c4[nH]c5cc(OC)ccc5c4CC[N@@](C2)[C@@H]13 | 214 |  |  |  |  |  |  | 
59 | O=C(O)CC1CCCCC1 | 33 |  | 245 |  |  |  |  | 
60 | O=C(C=CC(=O)Oc1ccccc1)Oc1ccccc1 | 73 |  |  |  |  |  |  | 
61 | OCC(CO)(CCl)CCl | 83 |  |  |  |  |  |  | 
62 | O=C(O)c1ccc(O)c(C(=O)O)c1 | 310 |  |  |  |  |  |  | 
63 | CC(C)COc1ccc2ccccc2c1 | 31 | not readily biodegradable |  |  |  |  |  | 
64 | Brc1cccc(Oc2ccc(Br)c(Br)c2Br)c1 |  |  |  | -5.66 |  |  |  | 
65 | O=C(O)c1cc(I)c(I)c(I)c1 | 292 |  |  |  |  |  |  | 
66 | CC(C)CCCC(C)(C)O |  |  | 173 |  |  |  |  | 
67 | OCCS |  |  | 158 | 0.244 |  |  |  | 
68 | Cc1c(O)cc2c(c1C)OC(C)(CCCC(C)CCCC(C)CCCC(C)C)CC2 (stereo unspecified) | -3 |  |  |  |  |  |  | 
69 | O=[N+]([O-])c1cccs1 | 46.5 |  | 224 |  |  |  |  | 
70 | CCCCB(Cl)CCCC |  |  | 173 |  |  |  |  | 
71 | CCCCCCCC(=O)NN | 88 |  |  |  |  |  |  | 
72 | C=CC1CO1 (stereo unspecified) | -135 |  | 68 |  |  |  |  | 
73 | CC(C)(Cl)C(=O)O | 31 |  |  |  |  |  |  | 
74 | CCCCCCc1ccc2c(c1)CCC2 | -34 |  | 292 |  |  |  |  | 
75 | CC(=O)c1ccc(C)cc1 | 28 | readily biodegradable | 226 |  |  |  |  | 

Row | SMILES | melting point [°C] | ready biodegradability | boiling point [°C] | log10 vapour pressure (mmHg) | log10 Henry constant (atm·m³/mol) | log10 Koa | log10 Koc (L/kg) | log10 biodegradation half-life (days)
76 | CCCCCC#CC(=O)O | 4 |  |  |  |  |  |  | 
77 | CCCCCCCCCCCCCCCCCC(=O)OCCCC | 27 |  | 343 |  |  |  |  | 
78 | O=[N+]([O-])c1cccc([N+](=O)[O-])c1Cl | 88 |  | 315 |  |  |  |  | 
79 | CCCCc1cccnc1 |  |  | 206 |  |  |  |  | 
80 | CN1CCN(C2=Nc3ccccc3Sc3ccc(Cl)cc32)CC1 | 119 |  |  |  |  |  |  | 
81 | CCC(C)S (stereo unspecified) | -165 |  | 84.5 | 1.91 |  |  |  | 
82 | Nc1ccc(Cl)cc1C(=O)c1ccccc1 | 99 |  |  |  |  |  |  | 
83 | CCOC(=O)c1ccccc1Cl |  |  | 243 |  |  |  |  | 
84 | FC(Cl)(Cl)C(Cl)(Cl)Cl | 101 |  | 135 |  |  |  |  | 
85 | CCCCCCCCCCCCC(=O)O | 44.5 |  | 312 | -4.9 |  |  |  | 
86 | CCCCOCCOC(=O)C(C)Oc1ccc(Cl)cc1Cl (stereo unspecified) |  |  |  |  |  |  | 3 | 
87 | Clc1cc(Cl)c2c(oc3ccc(Cl)c(Cl)c32)c1Cl | 210 |  |  |  |  |  |  | 
88 | CCCCC(CC)COP(=O)(OCC(CC)CCCC)OCC(CC)CCCC (stereo unspecified) | -74 | not readily biodegradable |  | -7.08 |  |  |  | 
89 | C[C@@H]1CC[C@@]2(OC1)O[C@H]1C[C@H]3[C@@H]4CC[C@H]5C[C@@H](O)CC[C@]5(C)[C@H]4CC(=O)[C@]3(C)[C@H]1[C@@H]2C | 266 |  |  |  |  |  |  | 
90 | Nc1cccc(Oc2ccccc2)c1 | 37 |  | 315 |  |  |  |  | 
91 | CCCOc1ccc(O)cc1 | 56.5 |  |  |  |  |  |  | 
92 | C=CCCCCCCCCCCCCCCCC | 17.5 |  |  | -4.17 |  |  |  | 
93 | CN(C)CCc1c[nH]c2ccccc12 | 46 |  |  |  |  |  |  | 
94 | CCCCCCCCCCCCCCCCOC(=O)CCCCCCCCCCCCC |  | readily biodegradable |  |  |  |  |  | 
95 | O=C(Nc1ccccc1)C(Cl)(Cl)Cl | 96 |  |  |  |  |  |  | 
96 | CCCOc1ccc(C(=O)O)cc1 | 145 |  |  |  |  |  |  | 
97 | COC(=O)C=CC(=O)OC |  | readily biodegradable |  |  |  |  |  | 
98 | CCCCOCCOC(=O)COc1ccc(Cl)cc1Cl |  |  |  | -5.35 |  |  |  | 
99 | CCCNCCC | -63 | readily biodegradable | 109 | 1.3 | -4.29 | 3.59 |  | 
100 | ON=C1CCCC1 | 57.8 |  | 196 |  |  |  |  | 

same assay, conditions: fish

Row | SMILES | log10 BCF | log10 biotransformation half-life (days)
101 | Clc1cc2c(oc3c(Cl)c(Cl)c(Cl)cc32)c(Cl)c1Cl | 3.98 | 1.12
102 | OCC(CO)(CBr)CBr | 0.68 | -1.4
103 | Clc1cc(-c2c(Cl)c(Cl)c(Cl)c(Cl)c2Cl)cc(Cl)c1Cl |  | 2.65
104 | O=[N+]([O-])c1cc(S(=O)(=O)Nc2ccccc2)ccc1Nc1ccccc1 | 1.61 | -0.66
105 | O=P(Oc1ccccc1)(Oc1ccccc1)Oc1ccccc1 | 2.28 | -0.76
106 | CC(C)COc1ccc2ccccc2c1 | 2.8 | 0.23
107 | CCCCC(CC)COP(=O)(OCC(CC)CCCC)OCC(CC)CCCC (stereo unspecified) | 1.7 | -0.29
